For assay [1], the system named is Coxsackievirus B3. The experiment in a line: Selectivity index as the ratio of CC50/EC50 against Coxsackie B virus type-3. The format is functional.
For assay [2], the system named is Coxsackievirus B3. Kind of assay: Tested for its anti-polio activity against Coxsackie B virus type-3. The class given is functional, organism-based. Particulars: Enterovirus B.
The subject of assay [3] is Vesicular stomatitis virus. Kind of assay: Selectivity index as the ratio of CC50/EC50 against Vesicular stomatitis virus. The class given is functional.
For assay [4], the system named is Vesicular stomatitis virus. The experiment in a line: Tested for its anti-polio activity against Vesicular stomatitis virus. The format is functional, organism-based.

SMILES strings stand for the structures. Converted amounts (≈) assume the structure as drawn.

Broadly, the EC50 is the concentration needed to bring the measured effect to its halfway point.

As to `NC(=O)c1ncn([C@@H]2O[C@H](CO)[C@@H](O)[C@H]2O)n1` [RIBAVIRIN], the Selectivity index came out at 5.58 with Coxsackievirus B3 [1] and 27.26 in assay [3]. Besides, the EC50 with Coxsackievirus B3 [2] was determined as 92.5 µg/mL (≈ 379 µM); in assay [4] it was 15.6 µg/mL (≈ 64 µM).

For the compound `CC(C)[C@H](NC(=O)OC(C)(C)C)c1cc(Cn2ccc(=O)n(C(=O)c3ccccc3)c2=O)on1`, the Selectivity index in the assay with Coxsackievirus B3 [1] is 1.02; in assay [3], 1.25. The half-maximal effective concentration (EC50) amounted to 98.1 µg/mL (≈ 209 µM) in the assay on Coxsackievirus B3 [2] and 80 µg/mL (≈ 171 µM) in assay [4].

For `Cc1cn(Cc2cc([C@H](Cc3ccccc3)NC(=O)OC(C)(C)C)no2)c(=O)n(C(=O)c2ccccc2)c1=O`, the Selectivity index in the assay on Coxsackievirus B3 [1] was found to be 2.46; in assay [3], 3.29. Besides, the results for the concentration giving a half-maximal response (EC50) (in the assay on Coxsackievirus B3 [2]; in assay [4]) were 10.6 µg/mL (≈ 20 µM) and 7.94 µg/mL (≈ 15 µM), respectively.

For the origin of these results see ChEMBL document CHEMBL1135116, “Heterocyclic nucleoside analogues: design and synthesis of antiviral, modified nucleosides containing isoxazole heterocycles” (Bioorg Med Chem Lett, 2002).
